The CombiSolv-Exp solvation set (Vermeire and Green 2021)

Assay: solvent given as SMILES

COc1cc(C(C)=O)cc(-c2cc(C(C)=O)cc(OC)c2O)c1O
Details | solvation free energy, 298 K [kcal/mol]
in CCC(C)=O | -21.7
in CCCO | -21.1
in Cc1ccccc1 | -20.8
in ClC=CCl | -22
in O | -19.2

CN1C(=O)C(O)N=C(c2ccccc2)c2cc(Cl)ccc21 (centres undefined)
Details | solvation free energy, 298 K [kcal/mol]
in CC(C)O | -18.1
in CCCCCCO | -18.6
in CCCCCO | -18.5
in CCCCO | -18.5
in CCCO | -18.5
in CCO | -18.6
in CN(C)C=O | -20
in CO | -19.1
in O | -15.2
in O=C1CCCCC1 | -19.6

C=C1C2CCC3C2C(C)(C)CCCC13C (centres undefined)
Details | solvation free energy, 298 K [kcal/mol]
in O | 0.8

CCCC=O
Details | solvation free energy, 298 K [kcal/mol]
in C1CCOC1 | -4.42
in C=CCCCC | -3.65
in C=CCCCCCCCCCCCCCC | -3.15
in CC(C)CC(C)(C)C | -3.45
in CC(C)CCCC(C)CCCC(C)CCCCC(C)CCCC(C)CCCC(C)C | -3.09
in CCCCCCCC | -3.23
in CCCCCCCCCCCCCCCC | -3.18
in CCCCCCCCO | -4.64
in CCCCCO | -3.7
in CCOC(C)=O | -4.33
in CN1CCCC1=O | -4.16
in CO | -4.34
in NC=O | -3.52
in O | -3.12
in O=CN1CCOCC1 | -3.94
in [2H]O[2H] | -3.11

CC(C)(C)c1ccccc1
Details | solvation free energy, 298 K [kcal/mol]
in C1CCOC1 | -6.93
in CC#N | -5.86
in CC(C)O | -5.63
in CO | -5.52
in O | -0.42

CCCCC(C)(C)O
Details | solvation free energy, 298 K [kcal/mol]
in CCCCCCCC | -5.29
in CCCCCCCCCC | -5.22

O=C1c2ccccc2C(=O)c2c(NCCO)cccc21
Details | solvation free energy, 298 K [kcal/mol]
in O | -14.2

CCCC(O)C(C)C (centres undefined)
Details | solvation free energy, 298 K [kcal/mol]
in CCCCCCCC | -5.34
in CCCCCCCCCC | -5.46

OC(CCl)CCl
Details | solvation free energy, 298 K [kcal/mol]
in CCCCOC(C)=O | -7.58
in Clc1ccccc1 | -6.02

S=C=S
Details | solvation free energy, 298 K [kcal/mol]
in C1CCCC1 | -3.57
in C1COCCO1 | -3.03
in CC(C)=O | -3.07
in CC(C)CC(C)(C)C | -3.25
in CCC(C)=O | -3.1
in CCCCCCC | -3.33
in CCCCCCCC | -3.29
in CCCCCCCCO | -3.11
in CCCCCO | -3.31
in CCCCO | -3.08
in CCO | -3.1
in CCOC(C)=O | -3.12
in CN(C)C=O | -3
in Cc1ccc(C)cc1 | -3.55
in ClC(Cl)(Cl)Cl | -3.62
in ClC(Cl)=C(Cl)Cl | -3.52
in ClCCCl | -3.29
in N#Cc1ccccc1 | -3.18
in O | 0.16
in O=C1CCCCC1 | -3.31
in c1ccccc1 | -3.6

CCCCN(CCCC)N=O
Details | solvation free energy, 298 K [kcal/mol]
in CC(C)CC(C)(C)C | -7.84
in O | -4.91

CC(C)CC(=O)CC(C)C
Details | solvation free energy, 298 K [kcal/mol]
in CCCCCCC | -6.13

CC(=O)CC(=O)c1ccccc1
Details | solvation free energy, 298 K [kcal/mol]
in CCCCCC | -7.72
in CCCCCCC | -7.87
in CCCCCCCC | -7.76
in CCCCCCCCCC | -7.76

COc1ccc(C(=O)N(O)c2cccc(Cl)c2)cc1
Details | solvation free energy, 298 K [kcal/mol]
in O | -12.8

CCCCCCCCC=O
Details | solvation free energy, 298 K [kcal/mol]
in NC=O | -4.37
in O | -2.08

CCC(CC)CO
Details | solvation free energy, 298 K [kcal/mol]
in O | -3.73

O=c1[nH]cc(Br)c(=O)[nH]1
Details | solvation free energy, 298 K [kcal/mol]
in O | -18.2

COC(C)=O
Details | solvation free energy, 298 K [kcal/mol]
in C=CCCCCCCC=C | -3.23
in CC(=O)N(C)C | -3.82
in CC(C)=O | -4.12
in CC(C)CCCC(C)CCCC(C)CCCCC(C)CCCC(C)CCCC(C)C | -2.53
in CC(C)O | -3.36
in CCC1CO1 | -4.01
in CCCCC(CC)COC(=O)CCCCC(=O)OCC(CC)CCCC | -3.19
in CCCCCC | -2.93
in CCCCCCC | -2.78
in CCCCCCCC | -2.88
in CCCCCCCCC=CCCCCCCCC(=O)OCC(COC(=O)CCCCCCCC=CCCCCCCCC)OC(=O)CCCCCCCC=CCCCCCCCC | -3.22
in CCCCCCCCCC | -2.8
in CCCCCCCCCCCCCCCC | -2.63
in CCCCCCCCO | -3.15
in CCCCN(C=O)CCCC | -3.48
in CCOC(=O)c1ccccc1C(=O)OCC | -3.48
in CCOCCO | -3.69
in CCOP(=O)(OCC)OCC | -3.75
in CN1CCCC1=O | -3.72
in CN1CCCCC1=O | -3.72
in CN1CCN(C)C1=O | -3.55
in CN(C)C=O | -3.9
in CNC(C)=O | -3.62
in CO | -3.96
in COP(=O)(OC)OC | -3.94
in CS(C)=O | -3.53
in NC=O | -3.27
in O | -3.14
in O=CN1CCOCC1 | -3.58
in OCCOCCO | -3.32
in [2H]O[2H] | -3.17
in c1ccc2ncccc2c1 | -3.51
